From ChEMBL document CHEMBL4020763, “N-(1H-Pyrazol-3-yl)quinazolin-4-amines as a novel class of casein kinase 1δ/ε inhibitors: Synthesis, biological evaluation and molecular modeling studies” (Bioorg Med Chem Lett, 2017)

What was measured:
HCT-15 [1] = assay: Cytotoxicity against human HCT15 cells by MTT assay; format: functional, cell-based
[2] = Inhibition of M-phase starfish oocytes CDK1/cyclin B using histone H1 as substrate after 30 mins in presence of ATP by scintillation counting method; set-up: species or system Asteroidea
[3] = Inhibition of porcine brain CK1-delta/epsilon using CSK peptide as substrate after 30 mins in presence of ATP by scintillation counting method; set-up: species or system Sus scrofa
BT-20 [4] = assay: Growth inhibition of human BT20 cells at 100 uM by MTT assay relative to control; format: functional; settings: read-out: GI
HEK293 = assay: Cytotoxicity against HEK293 cells by MTT assay; format: cell-based; settings: Homo sapiens
MIA PaCa-2 [5] = assay: Growth inhibition of human MIAPaCa2 cells at 100 uM by MTT assay relative to control; format: functional; settings: read-out: GI
ZR-75-1 [6] = assay: Cytotoxicity against human ZR-75-1 cells by MTT assay; format: functional, cell-based
HCT-15 [7] = assay: Growth inhibition of human HCT15 cells at 100 uM by MTT assay relative to control; format: functional; settings: read-out: GI
Sus scrofa = organism: Sus scrofa; assay: Inhibition of porcine brain CK1-delta/epsilon at 10 uM using CSK peptide as substrate after 30 mins in presence of ATP by scintillation counting method relative to control
PANC-1 [8] = assay: Cytotoxicity against human PANC1 cells by MTT assay; format: functional, cell-based
Asteroidea = assay: Inhibition of M-phase starfish oocytes CDK1/cyclin B at 10 uM using histone H1 as substrate after 30 mins in presence of ATP by scintillation counting method relative to control
ZR-75-30 [9] = assay: Cytotoxicity against human ZR-7530 cells by MTT assay; format: functional, cell-based
A549 [10] = assay: Growth inhibition of human A549 cells at 100 uM by MTT assay relative to control; format: functional; settings: read-out: GI
[11] = Growth inhibition of HEK293 cells at 100 uM by MTT assay relative to control; format: cell-based; settings: human, read-out: GI
ZR-75-1 [12] = assay: Growth inhibition of human ZR-75-1 cells at 100 uM by MTT assay relative to control; format: functional; settings: read-out: GI
MDA-MB-231 [13] = assay: Cytotoxicity against human MDA-MB-231 cells by MTT assay; format: functional, cell-based
BT-20 [14] = assay: Cytotoxicity against human BT20 cells by MTT assay; format: functional, cell-based
A549 [15] = assay: Cytotoxicity against human A549 cells by MTT assay; format: functional, cell-based
MCF7 [16] = assay: Cytotoxicity against human MCF7 cells by MTT assay; format: functional, cell-based
[17] = target: Glycogen synthase kinase-3 (Sus scrofa) (UniProt B2LUN4+I6LNT8); assay: Inhibition of porcine brain GSK-3 alpha/beta at 10 uM using YRRAAVPPSPSLSRHSSPHQpSEDEEE as substrate after 30 mins in presence of ATP by scintillation counting method relative to control
PANC-1 [18] = assay: Growth inhibition of human PANC1 cells at 100 uM by MTT assay relative to control; format: functional; settings: read-out: GI
[19] = target: Dual specificity protein kinase CLK1 (Mus musculus) (UniProt P22518); assay: Inhibition of recombinant mouse GST-fused CLK1 expressed in Escherichia coli at 10 uM using RS peptide as substrate after 30 mins in presence of ATP by scintillation counting method relative to control
Chain of Dual specificity protein kinase CLK1 (Mus musculus) (P22518 whole entry, looked up, the tested form may be a part): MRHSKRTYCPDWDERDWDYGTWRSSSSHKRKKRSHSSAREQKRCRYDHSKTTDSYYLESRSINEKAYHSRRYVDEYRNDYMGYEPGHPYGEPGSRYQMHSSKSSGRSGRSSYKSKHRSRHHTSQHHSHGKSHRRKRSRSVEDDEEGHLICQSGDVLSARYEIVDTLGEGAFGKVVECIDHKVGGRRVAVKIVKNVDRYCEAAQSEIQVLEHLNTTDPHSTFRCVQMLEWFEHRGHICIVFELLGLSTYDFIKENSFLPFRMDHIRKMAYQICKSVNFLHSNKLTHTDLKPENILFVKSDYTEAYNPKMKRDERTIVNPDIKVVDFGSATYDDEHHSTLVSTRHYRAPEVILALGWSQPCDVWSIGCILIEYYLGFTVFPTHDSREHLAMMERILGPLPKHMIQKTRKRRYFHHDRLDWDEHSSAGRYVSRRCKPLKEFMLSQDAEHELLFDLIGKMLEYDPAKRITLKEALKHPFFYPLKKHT

[20] = target: Glycogen synthase kinase-3 (Sus scrofa, UniProt B2LUN4+I6LNT8); assay: Inhibition of porcine brain GSK-3 alpha/beta using YRRAAVPPSPSLSRHSSPHQpSEDEEE as substrate after 30 mins in presence of ATP by scintillation counting method
[21] = target: Dual specificity tyrosine-phosphorylation-regulated kinase 1A (Homo sapiens) (UniProt Q13627); assay: Inhibition of recombinant full length human GST-fused DYRK1A expressed in Escherichia coli at 10 uM using RS peptide as substrate after 30 mins in presence of ATP by scintillation counting method relative to control
MDA-MB-468 [22] = assay: Cytotoxicity against human MDA-MB-468 cells by MTT assay; format: functional, cell-based
[23] = target: Cyclin-dependent kinase 5/CDK5 activator 1 (Homo sapiens) (UniProt Q00535+Q15078); assay: Inhibition of recombinant human CDK5/p25 expressed in Escherichia coli at 10 uM using histone H1 as substrate after 30 mins in presence of ATP by scintillation counting method relative to control
Chain of Cyclin-dependent kinase 5/CDK5 activator 1 (Homo sapiens) (Q00535 whole entry): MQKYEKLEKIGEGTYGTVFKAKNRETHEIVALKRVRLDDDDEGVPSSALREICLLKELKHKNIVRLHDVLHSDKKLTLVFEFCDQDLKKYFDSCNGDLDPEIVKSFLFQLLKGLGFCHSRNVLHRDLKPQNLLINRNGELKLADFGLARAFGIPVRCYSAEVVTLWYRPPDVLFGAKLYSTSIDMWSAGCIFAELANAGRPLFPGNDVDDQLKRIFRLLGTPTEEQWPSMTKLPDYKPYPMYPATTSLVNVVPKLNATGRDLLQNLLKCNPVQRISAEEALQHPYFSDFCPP
Chain of Cyclin-dependent kinase 5/CDK5 activator 1 (Homo sapiens) (Q15078 99-307 partner limits assumed): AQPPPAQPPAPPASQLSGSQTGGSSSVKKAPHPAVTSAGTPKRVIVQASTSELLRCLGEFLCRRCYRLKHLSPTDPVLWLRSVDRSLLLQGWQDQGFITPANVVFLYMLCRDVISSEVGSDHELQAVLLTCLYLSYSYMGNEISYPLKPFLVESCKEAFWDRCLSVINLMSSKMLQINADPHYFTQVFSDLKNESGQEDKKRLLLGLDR

[24] = target: CDK9/cyclin T1 (Homo sapiens) (UniProt O60563+P50750); assay: Inhibition of recombinant human CDK9/cyclin T expressed in insect cells at 10 uM using YSPTSPSYSPTSPSYSPTSPSKKKK as substrate after 30 mins in presence of ATP by scintillation counting method relative to control
MIA PaCa-2 [25] = assay: Cytotoxicity against human MIAPaCa2 cells by MTT assay; format: functional, cell-based
MCF7 [26] = assay: Growth inhibition of human MCF7 cells at 100 uM by MTT assay relative to control; format: functional; settings: read-out: GI
[27] = target: Dual specificity protein kinase CLK1 (Mus musculus, UniProt P22518); assay: Inhibition of recombinant mouse GST-fused CLK1 expressed in Escherichia coli using RS peptide as substrate after 30 mins in presence of ATP by scintillation counting method
Chain of Dual specificity protein kinase CLK1 (P22518 whole entry, the tested form may be a part): as the sequence (P22518 whole entry, looked up, the tested form may be a part) above

[28] = target: CDK2/Cyclin A2 (Homo sapiens) (UniProt P24941+P20248); assay: Inhibition of recombinant human CDK2/cyclin A at 10 uM using histone H1 as substrate after 30 mins in presence of ATP by scintillation counting method relative to control; format: protein-complex assay
DU-145 = assay: Growth inhibition of human DU145 cells at 100 uM by MTT assay relative to control; format: functional; settings: read-out: GI
MDA-MB-468 [29] = assay: Growth inhibition of human MDA-MB-468 cells at 100 uM by MTT assay relative to control; format: functional; settings: read-out: GI
ZR-75-30 [30] = assay: Growth inhibition of human ZR-7530 cells at 100 uM by MTT assay relative to control; format: functional; settings: read-out: GI
MDA-MB-231 [31] = assay: Growth inhibition of human MDA-MB-231 cells at 100 uM by MTT assay relative to control; format: functional; settings: read-out: GI
CDK2/Cyclin A2 = CDK2/Cyclin A2 (Homo sapiens, UniProt P24941); assay: Inhibition of recombinant human CDK2/cyclin A using histone H1 as substrate after 30 mins in presence of ATP by scintillation counting method; format: protein-complex assay

## COc1cc2ncnc(Nc3cc(O)[nH]n3)c2cc1OC
HCT-15 [1]
  IC50: > 100 µM
[2]
  IC50: > 10 µM
[3]
  IC50: < 10 µM
BT-20 [4]
  inhibition of growth at 100 µM: > 50%
HEK293
  IC50: 69.5 µM
MIA PaCa-2 [5]
  inhibition of growth at 100 µM: > 50%
ZR-75-1 [6]
  IC50: > 100 µM
HCT-15 [7]
  inhibition of growth at 100 µM: > 50%
Sus scrofa
  inhibition: > 50%
PANC-1 [8]
  IC50: > 100 µM
Asteroidea
  inhibition: > 50%
ZR-75-30 [9]
  IC50: > 100 µM
A549 [10]
  inhibition of growth at 100 µM: > 50%
[11]
  inhibition at 100 µM: > 50%
ZR-75-1 [12]
  inhibition of growth at 100 µM: > 50%
MDA-MB-231 [13]
  IC50: > 100 µM
BT-20 [14]
  IC50: > 100 µM
A549 [15]
  IC50: 74.9 µM
MCF7 [16]
  IC50: > 100 µM
[17]
  inhibition: > 50%
PANC-1 [18]
  inhibition of growth at 100 µM: > 50%
[19]
  inhibition: > 50%
[20]
  IC50: > 10 µM
[21]
  inhibition: > 50%
MDA-MB-468 [22]
  IC50: 86.7 µM
[23]
  inhibition: > 50%
[24]
  inhibition: > 50%
MIA PaCa-2 [25]
  IC50: > 100 µM
MCF7 [26]
  inhibition of growth at 100 µM: > 50%
[27]
  IC50: > 10 µM
[28]
  inhibition: > 50%
DU-145
  inhibition of growth at 100 µM: > 50%
MDA-MB-468 [29]
  inhibition of growth at 100 µM: > 50%
ZR-75-30 [30]
  inhibition of growth at 100 µM: > 50%
MDA-MB-231 [31]
  inhibition of growth at 100 µM: > 50%
CDK2/Cyclin A2
  IC50: > 10 µM

## COc1ccc2c(c1)[nH]c1c(C)nccc12 [HARMINE]
[2]
  IC50: > 10 µM
[20]
  IC50: > 10 µM
CDK2/Cyclin A2
  IC50: > 10 µM

## COc1cc2ncnc(Nc3n[nH]cc3C#N)c2cc1OC
HCT-15 [1]
  IC50: > 100 µM
[2]
  IC50: > 10 µM
[3]
  IC50: < 10 µM
BT-20 [4]
  inhibition of growth at 100 µM: > 50%
HEK293
  IC50: > 100 µM
MIA PaCa-2 [5]
  inhibition of growth at 100 µM: > 50%
ZR-75-1 [6]
  IC50: > 100 µM
HCT-15 [7]
  inhibition of growth at 100 µM: > 50%
Sus scrofa
  inhibition: > 50%
PANC-1 [8]
  IC50: > 100 µM
Asteroidea
  inhibition: > 50%
ZR-75-30 [9]
  IC50: > 100 µM
A549 [10]
  inhibition of growth at 100 µM: > 50%
[11]
  inhibition at 100 µM: > 50%
ZR-75-1 [12]
  inhibition of growth at 100 µM: > 50%
MDA-MB-231 [13]
  IC50: > 100 µM
BT-20 [14]
  IC50: > 100 µM
A549 [15]
  IC50: > 100 µM
MCF7 [16]
  IC50: > 100 µM
[17]
  inhibition: > 50%
PANC-1 [18]
  inhibition of growth at 100 µM: > 50%
[19]
  inhibition: > 50%
[20]
  IC50: > 10 µM
[21]
  inhibition: > 50%
MDA-MB-468 [22]
  IC50: > 100 µM
[23]
  inhibition: > 50%
[24]
  inhibition: > 50%
MIA PaCa-2 [25]
  IC50: > 100 µM
MCF7 [26]
  inhibition of growth at 100 µM: > 50%
[27]
  IC50: > 10 µM
[28]
  inhibition: > 50%
DU-145
  inhibition of growth at 100 µM: > 50%
MDA-MB-468 [29]
  inhibition of growth at 100 µM: > 50%
ZR-75-30 [30]
  inhibition of growth at 100 µM: > 50%
MDA-MB-231 [31]
  inhibition of growth at 100 µM: > 50%
CDK2/Cyclin A2
  IC50: > 10 µM
